Measurements taken from patent US7205150B2, “Transgenic plants over-expressing plant ADP-glucose pyrophosphatase” (Universidad Publica de Navarra, priority 2000, dated 2007).
Entries after “also recorded” stand apart in the source; their conditions may differ.

System: AGPPase (soluble and particulate isoforms)
Experiment: AGPPase enzymatic assay (two-step spectrophotometric determination of G1P produced from ADPG)
Assay type: biochemical, barley (Hordeum vulgare), tomato (Lycopersicon sculentum)
Conditions: for Km / affinity compared with ADP-glucose: Km of ADP-glucose relative to this substrate

Row | Hydrolysis / recognition as substrate by AGPPase | Inhibition of AGPPase | Compound | other results
1 | – | – | Nc1ncnc2c1ncn2[C@@H]1O[C@H](COP(=O)(O)OP(=O)(O)OC[C@H]2OC(O)[C@H](O)[C@@H]2O)[C@@H](O)[C@H]1O (some centres unmarked) [ADP-ribose] | Km / affinity compared with ADP-glucose: four of five times lower
2 | – | – | OCCS [β-mercaptoethanol] | Effect of typical phosphodiesterase inhibitors (reducing and chelating agents) on AGPPase activity: not affected
3 | recognise | – | Nc1nc2c(ncn2[C@@H]2O[C@H](COP(=O)(O)OP(=O)(O)O[C@H]3O[C@H](CO)[C@@H](O)[C@H](O)[C@H]3O)[C@@H](O)[C@H]2O)c(=O)[nH]1 [GDP-glucose] | –
4 | do not hydrolyse | inhibited | O=C(O)[C@H](O)COP(=O)(O)O [3-phosphoglycerate] | –
5 | – | inhibited | Nc1ncnc2c1ncn2[C@@H]1O[C@H](COP(=O)(O)OP(=O)(O)OP(=O)(O)O)[C@@H](O)[C@H]1O [ATP] | –
6 | – | strongly inhibited | [O]=[Mo](=[O])([O-])[O-] [molybdate] | –
7 | do not hydrolyse | inhibited | Nc1ncnc2c1ncn2[C@@H]1O[C@H](COP(=O)(O)O)[C@@H](O)[C@H]1O [AMP] | –
8 | recognises | – | Nc1nc2c(ncn2[C@@H]2O[C@H](COP(=O)(O)OP(=O)(O)O[C@H]3O[C@H](CO)[C@@H](O)[C@H](O)[C@@H]3O)[C@@H](O)[C@H]2O)c(=O)[nH]1 [GDP-mannose] | –
9 | do not hydrolyse | – | O=C[C@H](O)[C@@H](O)[C@H](O)[C@H](O)COP(=O)(O)O [G6P, glucose-6-phosphate] | –
10 | – | inhibited | Nc1ncnc2c1ncn2[C@@H]1O[C@H](COP(=O)(O)OP(=O)(O)O)[C@@H](O)[C@H]1O [ADP] | –
11 | recognises | – | Nc1ncnc2c1ncn2[C@@H]1O[C@H](COP(=O)(O)OP(=O)(O)O[C@H]2O[C@H](CO)[C@@H](O)[C@H](O)[C@@H]2O)[C@@H](O)[C@H]1O [ADP-mannose] | –

Row | Compound | Hydrolysis / recognition as substrate by AGPPase | Inhibition of AGPPase | other results
12 | Nc1ncnc2c1ncn2[C@@H]1O[C@H](COP(=O)(O)OS(=O)(=O)O)[C@@H](OP(=O)(O)O)[C@H]1O [PAPS, 3′-phosphoadenosine 5′-phosphosulphate] | recognises; also recorded: catalyse the hydrolysis | – | –
13 | O=[N+]([O-])c1ccc(OP(=O)(O)Oc2ccc([N+](=O)[O-])cc2)cc1 [bis-PNPP, bis-paranitrophenylphosphate] | recognise | – | –
14 | arsenate | – | strongly inhibited | –
15 | Nc1ncnc2c1ncn2[C@@H]1O[C@H](COP(=O)(O)OP(=O)(O)O[C@H]2O[C@H](CO)[C@@H](O)[C@H](O)[C@H]2O)[C@@H](O)[C@H]1O [ADPG, ADPglucose] | catalyse the hydrolysis; also recorded: preferred substrates | – | Km (read-out: Michaelis-Menten constant (Km)): 500 µM
16 | Nc1ncnc2c1ncn2[C@@H]1O[C@H](COP(=O)(O)OS(=O)(=O)O)[C@@H](O)[C@H]1O [APS, adenosine 5′phosphosulphate] | recognises; also recorded: catalyse the hydrolysis; also recorded: preferred substrates | – | Km / affinity compared with ADP-glucose: similar
